Patent US20070142392A1, “Uses of rifamycins” (ActivBiotics, Inc., priority 2005, published 2007)
Converted amounts (≈) assume the structure as drawn.

How the values were obtained:
Assay type in all cases: cell-based
[1] = test system: S. aureus; assay: MIC values, S. aureus (Tables 1-4)
[2] = test system: S. pneumo.; assay: MIC values, S. pneumo. (Tables 1-4)
[3] = test system: E. faecalis; assay: MIC values, E. faecalis (Tables 1-4)
[4] = test system: H. flu
[5] = test system: E. coli; assay: MIC values, E. coli (Tables 1-4)

CO[C@H]1/C=C/O[C@@]2(C)Oc3c(C)c(O)c4c(=O)c(c5oc6cc(N7CCN(Cc8ccccc8)CC7)cc(O)c6nc-5c4c3C2=O)NC(=O)/C(C)=C\C=C\[C@H](C)[C@H](O)[C@@H](C)[C@@H](O)[C@@H](C)[C@H](O)[C@@H]1C [Compound 89]
MIC S. aureus [1]: 0.03 µg/mL (≈ 0.0322 µM)
MIC S. pneumo. [2]: 0.001 µg/mL (≈ 0.00107 µM)
MIC E. faecalis [3]: >8 µg/mL
MIC H. flu [4]: 8 µg/mL (≈ 8.57 µM)
MIC E. coli [5]: >8 µg/mL

CO[C@H]1/C=C/O[C@@]2(C)Oc3c(C)c(O)c4c(=O)c(c5oc6cc(N7C[C@@H](C)N[C@@H](C)C7)cc(O)c6nc-5c4c3C2=O)NC(=O)/C(C)=C\C=C\[C@H](C)[C@H](O)[C@@H](C)[C@@H](O)[C@@H](C)[C@H](O)[C@@H]1C [Compound 90]
MIC S. aureus [1]: 0.008 µg/mL (≈ 0.00918 µM)
MIC S. pneumo. [2]: 0.0005 µg/mL (≈ 0.000574 µM)
MIC E. faecalis [3]: 0.06 µg/mL (≈ 0.0689 µM)
MIC H. flu [4]: 0.25 µg/mL (≈ 0.287 µM)
MIC E. coli [5]: 4 µg/mL (≈ 4.59 µM)

CC[C@@H]1CN(c2cc(O)c3nc4c5c6c7c(C)c(O)c5c(=O)c(c-4oc3c2)NC(=O)/C(C)=C\C=C\[C@H](C)[C@H](O)[C@@H](C)[C@@H](O)[C@@H](C)[C@H](O)[C@H](C)[C@@H](OC)/C=C/O[C@@](C)(O7)C6=O)C[C@H](CC)N1 [Compound 91]
MIC S. aureus [1]: 0.03 µg/mL (≈ 0.0334 µM)
MIC S. pneumo. [2]: 0.0005 µg/mL (≈ 0.000556 µM)
MIC E. faecalis [3]: 0.12 µg/mL (≈ 0.133 µM)
MIC H. flu [4]: 0.25 µg/mL (≈ 0.278 µM)
MIC E. coli [5]: 4 µg/mL (≈ 4.45 µM)

COCCN1CCN(c2cc(O)c3nc4c5c6c7c(C)c(O)c5c(=O)c(c-4oc3c2)NC(=O)/C(C)=C\C=C\[C@H](C)[C@H](O)[C@@H](C)[C@@H](O)[C@@H](C)[C@H](O)[C@H](C)[C@@H](OC)/C=C/O[C@@](C)(O7)C6=O)CC1 [Compound 92]
MIC S. aureus [1]: 0.004 µg/mL (≈ 0.00444 µM)
MIC S. pneumo. [2]: 0.00025 µg/mL (≈ 0.000277 µM)
MIC E. faecalis [3]: 0.12 µg/mL (≈ 0.133 µM)
MIC H. flu [4]: 0.25 µg/mL (≈ 0.277 µM)
MIC E. coli [5]: 8 µg/mL (≈ 8.88 µM)

CC[C@H]1CN(c2cc(O)c3nc4c5c6c7c(C)c(O)c5c(=O)c(c-4oc3c2)NC(=O)/C(C)=C\C=C\[C@H](C)[C@H](O)[C@@H](C)[C@@H](O)[C@@H](C)[C@H](O)[C@H](C)[C@@H](OC)/C=C/O[C@@](C)(O7)C6=O)C[C@H](C)N1 [Compound 93]
MIC S. aureus [1]: 0.004 µg/mL (≈ 0.00452 µM)
MIC S. pneumo. [2]: 0.00012 µg/mL (≈ 0.000136 µM)
MIC E. faecalis [3]: 0.5 µg/mL (≈ 0.565 µM)
MIC H. flu [4]: 0.25 µg/mL (≈ 0.282 µM)
MIC E. coli [5]: 4 µg/mL (≈ 4.52 µM)

CCOc1c(N2CCN(CC)CC2)ccc2nc3c4c5c6c(C)c(O)c4c(=O)c(c-3oc12)NC(=O)/C(C)=C\C=C\[C@H](C)[C@H](O)[C@@H](C)[C@@H](O)[C@@H](C)[C@H](O)[C@H](C)[C@@H](OC)/C=C/O[C@@](C)(O6)C5=O [Compound 94]
MIC S. aureus [1]: 0.008 µg/mL (≈ 0.0089 µM)
MIC S. pneumo. [2]: 0.0005 µg/mL (≈ 0.000556 µM)
MIC E. faecalis [3]: 0.5 µg/mL (≈ 0.556 µM)
MIC H. flu [4]: 0.25 µg/mL (≈ 0.278 µM)
MIC E. coli [5]: 8 µg/mL (≈ 8.9 µM)

CCOc1c(N2CCN(CCOC)CC2)cc(N2CCN(CCOC)CC2)c2nc3c4c5c6c(C)c(O)c4c(=O)c(c-3oc12)NC(=O)/C(C)=C\C=C\[C@H](C)[C@H](O)[C@@H](C)[C@@H](O)[C@@H](C)[C@H](O)[C@H](C)[C@@H](OC)/C=C/O[C@@](C)(O6)C5=O [Compound 95]
MIC S. aureus [1]: 0.12 µg/mL (≈ 0.112 µM)
MIC S. pneumo. [2]: 0.001 µg/mL (≈ 0.000933 µM)
MIC E. faecalis [3]: 8 µg/mL (≈ 7.47 µM)
MIC H. flu [4]: 2 µg/mL (≈ 1.87 µM)
MIC E. coli [5]: >8 µg/mL

CCOc1c(N2CCN(CCOC)CC2)ccc2nc3c4c5c6c(C)c(O)c4c(=O)c(c-3oc12)NC(=O)/C(C)=C\C=C\[C@H](C)[C@H](O)[C@@H](C)[C@@H](O)[C@@H](C)[C@H](O)[C@H](C)[C@@H](OC)/C=C/O[C@@](C)(O6)C5=O [Compound 96]
MIC S. aureus [1]: 0.015 µg/mL (≈ 0.0161 µM)
MIC S. pneumo. [2]: 0.005 µg/mL (≈ 0.00538 µM)
MIC E. faecalis [3]: 1 µg/mL (≈ 1.08 µM)
MIC H. flu [4]: 0.5 µg/mL (≈ 0.538 µM)
MIC E. coli [5]: >8 µg/mL

CO[C@H]1/C=C/O[C@@]2(C)Oc3c(C)c(O)c4c(=O)c(c5oc6cc(N7CCN(C8CCN(C)CC8)CC7)cc(O)c6nc-5c4c3C2=O)NC(=O)/C(C)=C\C=C\[C@H](C)[C@H](O)[C@@H](C)[C@@H](O)[C@@H](C)[C@H](O)[C@@H]1C [Compound 98]
MIC S. aureus [1]: 0.015 µg/mL (≈ 0.016 µM)
MIC S. pneumo. [2]: 0.002 µg/mL (≈ 0.00213 µM)
MIC E. faecalis [3]: 0.5 µg/mL (≈ 0.532 µM)
MIC H. flu [4]: 1 µg/mL (≈ 1.06 µM)
MIC E. coli [5]: >8 µg/mL

CO[C@H]1/C=C/O[C@@]2(C)Oc3c(C)c(O)c4c(=O)c(c5oc6cc(N7CCN(CC8CC8)CC7)cc(O)c6nc-5c4c3C2=O)NC(=O)/C(C)=C\C=C\[C@H](C)[C@H](O)[C@@H](C)[C@@H](O)[C@@H](C)[C@H](O)[C@@H]1C [Compound 99]
MIC S. aureus [1]: 0.008 µg/mL (≈ 0.00892 µM)
MIC S. pneumo. [2]: 0.0005 µg/mL (≈ 0.000557 µM)
MIC E. faecalis [3]: 0.06 µg/mL (≈ 0.0669 µM)
MIC H. flu [4]: 0.25 µg/mL (≈ 0.279 µM)
MIC E. coli [5]: 2 µg/mL (≈ 2.23 µM)

COC1C=COC2(C)Oc3c(C)c(O)c4c(=O)c(c5oc6cc(N7CC(C)NCC7C)cc(O)c6nc-5c4c3C2=O)NC(=O)C(C)=CC=CC(C)C(O)C(C)C(O)C(C)C(O)C1C (centres unmarked) [Compound 100]
MIC S. aureus [1]: 0.004 µg/mL (≈ 0.00459 µM)
MIC S. pneumo. [2]: 0.0005 µg/mL (≈ 0.000574 µM)
MIC E. faecalis [3]: 0.12 µg/mL (≈ 0.138 µM)
MIC H. flu [4]: 0.25 µg/mL (≈ 0.287 µM)
MIC E. coli [5]: 4 µg/mL (≈ 4.59 µM)

CO[C@H]1/C=C/O[C@@]2(C)Oc3c(C)c(O)c4c(=O)c(c5oc6cc(N7CCN(CCO)CC7)cc(O)c6nc-5c4c3C2=O)NC(=O)/C(C)=C\C=C\[C@H](C)[C@H](O)[C@@H](C)[C@@H](O)[C@@H](C)[C@H](O)[C@@H]1C [Compound 101]
MIC S. aureus [1]: 0.008 µg/mL (≈ 0.00902 µM)
MIC S. pneumo. [2]: 0.0005 µg/mL (≈ 0.000564 µM)
MIC E. faecalis [3]: 0.12 µg/mL (≈ 0.135 µM)
MIC H. flu [4]: 0.25 µg/mL (≈ 0.282 µM)
MIC E. coli [5]: 8 µg/mL (≈ 9.02 µM)

CO[C@H]1/C=C/O[C@@]2(C)Oc3c(C)c(O)c4c(=O)c(c5oc6cc(N7CCN(CCN(C)C)CC7)cc(O)c6nc-5c4c3C2=O)NC(=O)/C(C)=C\C=C\[C@H](C)[C@H](O)[C@@H](C)[C@@H](O)[C@@H](C)[C@H](O)[C@@H]1C [Compound 103]
MIC S. aureus [1]: 0.03 µg/mL (≈ 0.0328 µM)
MIC S. pneumo. [2]: 0.008 µg/mL (≈ 0.00875 µM)
MIC E. faecalis [3]: 0.5 µg/mL (≈ 0.547 µM)
MIC H. flu [4]: 0.12 µg/mL (≈ 0.131 µM)
MIC E. coli [5]: >8 µg/mL

CO[C@H]1/C=C/O[C@@]2(C)Oc3c(C)c(O)c4c(=O)c(c5sc6cc(N7CCN(C)CC7)ccc6nc-5c4c3C2=O)NC(=O)/C(C)=C\C=C\[C@H](C)[C@H](O)[C@@H](C)[C@@H](O)[C@@H](C)[C@H](O)[C@@H]1C [Compound 104]
MIC S. aureus [1]: 0.002 µg/mL (≈ 0.00233 µM)
MIC S. pneumo. [2]: 0.00012 µg/mL (≈ 0.00014 µM)
MIC E. faecalis [3]: 0.12 µg/mL (≈ 0.14 µM)
MIC H. flu [4]: 0.12 µg/mL (≈ 0.14 µM)
MIC E. coli [5]: 2 µg/mL (≈ 2.33 µM)

CO[C@H]1/C=C/O[C@@]2(C)Oc3c(C)c(O)c4c(=O)c(c5oc6cc(N7CCN(CCF)CC7)cc(O)c6nc-5c4c3C2=O)NC(=O)/C(C)=C\C=C\[C@H](C)[C@H](O)[C@@H](C)[C@@H](O)[C@@H](C)[C@H](O)[C@@H]1C [Compound 105]
MIC S. aureus [1]: 0.004 µg/mL (≈ 0.0045 µM)
MIC S. pneumo. [2]: 0.001 µg/mL (≈ 0.00112 µM)
MIC E. faecalis [3]: 0.12 µg/mL (≈ 0.135 µM)
MIC H. flu [4]: 0.12 µg/mL (≈ 0.135 µM)
MIC E. coli [5]: 8 µg/mL (≈ 9 µM)

CO[C@H]1/C=C/O[C@@]2(C)Oc3c(C)c(O)c4c(=O)c(c5oc6cc(N7CCN(c8ncccn8)CC7)cc(O)c6nc-5c4c3C2=O)NC(=O)/C(C)=C\C=C\[C@H](C)[C@H](O)[C@@H](C)[C@@H](O)[C@@H](C)[C@H](O)[C@@H]1C [Compound 106]
MIC S. aureus [1]: 0.004 µg/mL (≈ 0.00434 µM)
MIC S. pneumo. [2]: 0.0005 µg/mL (≈ 0.000543 µM)
MIC E. faecalis [3]: 0.25 µg/mL (≈ 0.271 µM)
MIC H. flu [4]: 0.12 µg/mL (≈ 0.13 µM)
MIC E. coli [5]: >8 µg/mL
